According to US12202790B2, “Sulfonamide derivatives having selective Nox inhibiting activity” (GLUCOX BIOTECH AB, priority 2018, dated 2025):

Experiments:
[1] = system: Hippocampal brain slices; assay: In vitro stroke model: hippocampal brain slices subjected to hypoxia and glucose deprivation; type: cell-based; conditions: hypoxia and glucose deprivation 5 hours, viability after 24 hours of culture
Experimental: (§1) FIG. 4 is a bar chart showing cell viability (in % of basal cell viability) of hippocampal brain slices subjected to hypoxia and starvation for 5 h and then cultured for 24 h in the absence (OGD) or presence of Example 11 at a concentration of 0.3 μM, 3 μM, or 10 μM. Basal=no hypoxia or starvation, cells cultured in the presence of culture medium only. OGD=5 h of hypoxia or starvation, cells cultured in the presence of culture medium only.
as §1, with “FIG. 5” for “FIG. 4”, “Example 17” for “Example 11”, “of 0.3,” for “of 0.3 μM,”, “3” for “3 μM,”
Hippocampal brain slices and human brain micro-vascular endothelial cells were subjected to hypoxia and glucose deprivation (starvation) for 5 hours and were tested for viability after 24 hours of culture in the presence of Example 11 or Example 17 at different concentrations. Additionally, human brain micro-vascular endothelial cells were subjected to hypoxia and glucose deprivation (starvation) for 6 hours and were tested for viability after 24 hours of culture in the presence of Example 44 at various concentrations.

[2] = system: rat lens epithelial explants; assay: TGFβ-induced lens epithelial to mesenchymal transition (EMT) in rat lens epithelial explants; type: cell-based; conditions: co-treatment with TGFβ, Example 11 2.4 μM, Example 17 0.3 μM; for progression of TGFβ-induced EMT: 5 days culture
Experimental: Ocular tissues were collected from postnatal-day-21 albino Wistar rats (Rattus norvegicus) that were sacrificed by asphyxiation and subsequent cervical dislocation.
Lens epithelial explants were prepared as previously described (Wang Q, et al., Investigative ophthalmology & visual science. 2010; 51(7):3599-610) and cultured in Medium 199 (M199) with Earle's salts (Life Technologies, USA), supplemented with 50 μg/mL L-glutamine, 50 IU/mL penicillin/50 μg/mL streptomycin (Thermo Scientific, USA), 2.5 μg/mL Amphostat B (Thermo Scientific, USA) and 0.1% bovine serum albumin (BSA) (Sigma, USA). M199 was equilibrated at 37° C., 5% CO2. To induce EMT, recombinant TGF-β2 was added to media in each culture dish at a working concentration of […] (R&D Systems, USA). Prior to the addition of TGF-β2, some explants were pre-treated for 30 minutes with Example 11 or Example 17, at working concentrations of 2.4 μM and 0.3 μM, respectively. The progression of EMT in live cells was observed and captured using phase-contrast microscopy (Olympus CK2, Japan) and a digital camera (Leica DFC-280, Germany). Percentage cell loss quantification was performed using the thresholding function of ImageJ (NIH), such that cells could be distinguished from bare lens capsule.

[3] = system: C57B16/J mice; assay: Mouse model of acute ischemic stroke by transient middle cerebral artery occlusion (tMCAO); type: in vivo; conditions: 2.56 mg/kg ip, 6 times once per hour, from 1 hour after reperfusion or 30 min before reperfusion, 24 h
Experimental: A mouse model of acute ischemic stroke by transient middle cerebral artery occlusion (tMCAO) was used. The model has been described by Kleinschnitz C, et al. 2010, J Exp Med 203(3):513-518. C57B16/J mice were anesthetized with isoflurane (0.8% in oxygen). The animal was placed on a heating-pad, and rectal temperature was maintained at 37.0° C. using a servo-controlled rectal probe-heating pad (Cibertec, Spain). Transient cerebral ischemia was induced using an intraluminal filament technique. Using a surgical microscope (Tecnoscopio OPMI pico, Carl Zeiss, Meditec Iberia SA, Spain), a midline neck incision was made and the right common and external carotid arteries were isolated and permanently ligated. […]
After sacrificing the mice (24 h reperfusion), brains were quickly removed and cut in four 2-mm thick coronal sections using a mouse brain slice matrix (Harvard Apparatus, Spain). […] Indirect infarct volumes were calculated by volumetry (ImageJ software, National Institutes of Health, USA) according to the following equation: Vindirect (mm^3)=Vinfarct×(1−(Vih−Vch)/Vch), where the term (Vih−Vch) represents the volume difference between the ischemic hemisphere and the control hemisphere and (Vih−Vch)/Vch expresses this difference as a percentage of the control hemisphere (FIGS. 7 and 9).

[4] = system: Human islet cells; assay: Effects on human islet cell viability; type: cell-based; conditions: 48 h, compound 1 μM
Experimental: Human islet cells were incubated at control condition, with the cytokines IL-1β (20 ng/ml)+IFN-γ (20 ng/ml), or with palmitate (1.5 mM+2% BSA)+high glucose (20 mM) (PH) for 2 days with or without Nox1 inhibitor ML-171 (2 μM), Nox2 inhibitor Phos-I2 (2 μM) or Example 17 (1 μM). Islets were photographed in an inverted fluorescence microscope and the intensities of red (PI) and blue (Bisbenzimide) signals were quantified using Image J software. Results are indicated as mean±S.E.M for 7 human islet donors.

| SMILES | neuroprotective effect (cell viability) [1] | progression of TGFβ-induced EMT [2] | morphology of remaining cells by day 5 [2] | brain damage (TTC stained coronal brain sections) [3] | infarct volume ([3]; compared to control animals) | human islet cell death with cytokines ([4]; IL-1β (20 ng/ml)+IFN-γ (20 ng/ml)) | human islet cell death with high glucose+palmitate ([4]; palmitate (1.5 mM)+high glucose (20 mM)) |
| --- | --- | --- | --- | --- | --- | --- | --- |
| Cc1ccccc1CCNS(=O)(=O)c1c(C)cccc1Cl [Example 11, 2-chloro-6-methyl-N-[2-(2-methylphenyl)ethyl]benzene-1-sulfonamide] | neuroprotective effect | a similar effect was obtained | some of the remaining cells appeared epithelial-like | – | – | – | – |
| Cc1ccccc1CCNS(=O)(=O)c1c(Cl)cc(Br)cc1Cl [Example 17, 4-bromo-2,6-dichloro-N-[2-(2-methylphenyl)ethyl]benzene-1-sulfonamide] | neuroprotective effect | appeared to delay the progression of EMT | some of the remaining cells appeared epithelial-like | significant reduction in brain damage | substantial reduction of infarct volume | protected both against cytokines and high glucose+palmitate | protected both against cytokines and high glucose+palmitate |
